From the NIST ThermoML archive (doi:10.1021/je7001418)

Test: cn = amount concentration of the nth substance listed, in mol/dm3
Conditions: 298.15 K, 101.3 kPa, Liquid; for viscosity: Capillary tube (Ostwald / Ubbelohde) method; for mass density: Pycnometric method

C[N+](C)(C)C.[I-] [tetramethylammonium iodide] + O
Conditions | mass density [kg/m3] | viscosity [mPa·s]
c1 = 0.05 | 1001 | 0.805
c1 = 0.1 | 1003 | 0.812
c1 = 0.15 | 1009 | 0.819
